Results as given in patent US20230348376A1 (TEIJIN PHARMA LIMITED, priority 2020, published 2023).

What was measured:
[1] = system: rat oligodendrocyte progenitor cells; assay: Promotive activity of rat oligodendrocyte progenitor cell differentiation-2 (immunostaining of MBP); assay type: cell-based; details: vitamin D derivative 2 μM, T3 30 nM, 4 days
Procedure, shortened: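 Rat OPCs prepared by shaking in separation medium about 22 h at 37 °C, 200 rpm, and collecting the supernatant.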

[2] = Evaluation of brain penetration in mice (blood and brain concentration at brain Cmax); assay type: in vivo, mouse; details: 1 mg/kg single oral dose, C57BL/6J mice; for Concentration in blood (mean ± SD) at brain Cmax / Concentration in brain (mean ± SD) at brain Cmax: n=3; for Kp: male, C57BL/6J, mouse, brain/plasma, po, 1 mg/kg, read-out: Concentration in brain/in blood ratio at brain Cmax
Procedure, shortened: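 Male C57BL/6J mice (8 weeks, n=3) dosed orally once at 1 […] mg/kg; plasma and brain collected at 0.25, 0.5, 1, 2, 4 and 8 h. Compound extracted with acetonitrile from brain homogenate and plasma, quantified by LC/MS/MS.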

[3] = system: rat oligodendrocyte progenitor cells; assay: Promotive activity of rat oligodendrocyte progenitor cell differentiation-1 (MBP gene expression, mRNA); assay type: cell-based; details: Rattus norvegicus, Oligodendrocyte progenitor cell, 96 h, read-out: promotive activity at T3 base (MBP gene expression; DMSO 0%, T3 100%), 4 days, MBP/β actin mRNA
Experimental: Regarding vitamin D derivatives, which was confirmed to act on the vitamin D receptor (VDR) in Example 352, the promotive activity of oligodendrocyte progenitor cell (OPC) differentiation was evaluated by MBP gene expression (mRNA).
A forebrain obtained from SD rat (Charles River Japan, 1 day old) was crushed with 70 μm Cell Strainer (Falcon #352350), and a cell suspension was prepared by collecting the cells in oligodendrocyte progenitor cell separation medium (20% FBS/2 mM Glutamax (Gibco #35050-061)/i mM sodium pyruvate (Gibco #11360-070)/1% penicillin-streptomycin (Invitrogen #15140-122)/DMEM (Gibco #11960-044)). The cell suspension was seeded in a poly-D-lysine coated T75 flask (Thermo Fisher Scientific #132704) and cultured for about 2 weeks. After culturing, the flask was shaken using a rotary shaker ([…] #WB-101SRC) for about 1 hour (37° C., 100 rpm), and the supernatant was discarded to remove microglia. Subsequently, oligodendrocyte progenitor cell separation medium was added to the flask, and the mixture was similarly shaken for about 22 hours (37° C., 200 rpm), and the supernatant was collected to prepare oligodendrocyte progenitor cells.
The oligodendrocyte progenitor cell prepared was suspended in a differentiation medium (2% B27 (Thermo Fisher Scientific, Inc. #17504-044)/1% penicillin-streptomycin (Invitrogen Corporation #15140-122)/10 ng/mL CNTF (PeproTech Inc. #AF-450-13)/DMEM (Gibco #11960-044)), and seeded on a 96-well plate coated with poly-L-ornithine (FUJIFILM Wako Pure Chemical Corporation #163-27421) under the condition of 0.65×10^4 cells/well, and on a 384-well plate under the condition of 2×10^3 cells/well using an automatic dispensing system (LABCYTE #Echo555). […] After culturing, the cells seeded on the 96-well plate were subjected to immunostaining against MBP using following methods: fixation (4% paraformaldehyde solution, 30 minutes, room temperature), PBS washing, membrane permeation treatment (0.1% Trion X-100 (SIGMA #X100-100ML)/PBS, 3 minutes, room temperature), blocking (3% BSA (SIGMA #A9647-10G)/PBS, 1 hour, room temperature), primary antibody reaction (MBP antibody (abcam plc #ab40390), 2.5 μg/mL, 4° C., 24 hours), PBS washing, secondary antibody reaction (Alexa488 anti-rabbit IgG (Thermo Fisher Scientific, Inc. #A-11034), 5 μg/mL, room temperature, 1 hour), PBS washing, and nuclear staining (Hoechst33342 (DOJINDO #NU043), 10 μg/mL, room temperature, 5 minutes). Subsequently, images of each well were acquired using a fluorescence microscope (KEYENCE CORPORATION #BZ-X800), the number of MBP-positive cells and Hoechst 33342-positive cells were measured using an image analysis application (KEYENCE CORPORATION #BZ-X800 Analyzer), and then the ratio (the number of MBP-positive cells/the number of Hoechst33342-positive cells) was calculated. The cells seeded on the 384-well plate were subjected to real-time PCR using Cells-to-CT 1-Step TaqMan Kit (Thermo Fisher Scientific, Inc. #A25602) and QuantStudio 12K Flex Real-Time PCR System (Thermo Fisher Scientific, Inc. #4472380). The experiment was performed in accordance with the protocol attached to the kit. MBP (Thermo Fisher Scientific, Inc. #Assay ID Rn00690616_ml) and β actin (Thermo Fisher Scientific, Inc. #Assay ID Rn00667869_ml) were used as primers, and the expression levels of each were measured and the ratio (MBP/β actin) was calculated.

human VDR = target: T1, human VDR (Homo sapiens, UniProt P11473); assay: Evaluation of VDR transcription activity in human osteoblasts (HOS cells), luciferase reporter; details: Activity (EC50, VDR transcription activity), HOS cells transfected with human VDR, human RXRα and DR3 luciferase reporter; 21 hours
T1 sequence (P11473 1-427): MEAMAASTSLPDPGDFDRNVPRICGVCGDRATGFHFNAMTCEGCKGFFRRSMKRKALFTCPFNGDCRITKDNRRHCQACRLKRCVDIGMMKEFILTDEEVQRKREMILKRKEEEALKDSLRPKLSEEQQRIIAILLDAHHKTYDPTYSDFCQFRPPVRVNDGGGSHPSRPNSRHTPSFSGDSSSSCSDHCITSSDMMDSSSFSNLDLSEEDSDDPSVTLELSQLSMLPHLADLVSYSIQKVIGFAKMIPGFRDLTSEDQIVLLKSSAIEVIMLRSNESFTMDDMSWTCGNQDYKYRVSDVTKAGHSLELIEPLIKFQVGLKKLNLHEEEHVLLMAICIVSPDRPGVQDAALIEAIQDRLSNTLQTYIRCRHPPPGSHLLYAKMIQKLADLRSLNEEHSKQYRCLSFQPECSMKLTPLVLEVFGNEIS
T1 sequence (P19793 1-462 partner): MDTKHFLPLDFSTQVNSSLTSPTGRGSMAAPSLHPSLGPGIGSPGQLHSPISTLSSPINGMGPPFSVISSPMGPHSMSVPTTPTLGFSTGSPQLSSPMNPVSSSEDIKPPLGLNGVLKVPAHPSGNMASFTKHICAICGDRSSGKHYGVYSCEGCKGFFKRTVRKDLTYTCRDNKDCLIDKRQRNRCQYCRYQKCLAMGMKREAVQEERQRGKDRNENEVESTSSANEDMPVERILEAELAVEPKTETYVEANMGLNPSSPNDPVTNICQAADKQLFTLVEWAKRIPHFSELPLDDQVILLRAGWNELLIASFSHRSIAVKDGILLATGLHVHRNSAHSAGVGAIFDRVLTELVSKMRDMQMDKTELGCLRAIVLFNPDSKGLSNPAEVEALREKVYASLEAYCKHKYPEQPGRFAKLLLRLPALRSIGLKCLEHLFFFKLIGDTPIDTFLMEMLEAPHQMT

Concentration in blood (mean ± SD) at brain Cmax [2] | Concentration in brain (mean ± SD) at brain Cmax [2] | Kp [2] | EC50 (human VDR) | Compound | Mean (number of MBP-positive cells/number of Hoechst33342-positive cells) ([1]; Test 2) | activation at 1 µM [3] | Mean (number of MBP-positive cells/number of Hoechst33342-positive cells) ([1]; Test 1)
0.304 ± 0.035 µM | 644 ± 92 pmol/g | 2.12 | 0.01 to 0.1 µM | C[C@H](CN1CC[C@H](OC(F)F)C1)[C@H]1CC[C@H]2/C(=C/C=C3C[C@@H](O)C[C@H](O)C3)CCC[C@]12C [Compound B051, (1R,3R)-5-(2-((1R,3aS,7aR,E)-1-((S)-1-((S)-3-(difluoromethoxy)pyrrolidin-1-yl)propan-2-yl)-7a-methyloctahydro-4H-inden-4-ylidene)ethylidene)cyclohexane-1,3-diol] | 0.45 | ≥ 20% | 
0.32 ± 0.053 µM | 237 ± 33 pmol/g | 0.74 | 0.01 to 0.1 µM | C=C1/C(=C\C=C2/CCC[C@]3(C)[C@@H]([C@H](C)CN4CC[C@H](C(F)F)C4)CC[C@@H]23)C[C@@H](O)[C@H](C)[C@@H]1O [Compound B021, (1R,2S,3 S,Z)-5-(2-((1R,3aS,7aR,E)-1-((S)-1-((S)-3-(difluoromethyl)pyrrolidin-1-yl)propan-2-yl)-7a-methyloctahydro-4H-inden-4-ylidene)ethylidene)-2-methyl-4-methylenecyclohexane-1,3-diol] |  | ≥ 20% | 
0.218 ± 0.031 µM | 384 ± 40 pmol/g | 1.76 | 0.01 to 0.1 µM | C[C@H](CN1CC[C@@H](C(F)F)C1)[C@H]1CC[C@H]2/C(=C/C=C3C[C@@H](O)C[C@H](O)C3)CCC[C@]12C [Compound B026, (1R,3R)-5-(2-((1R,3aS,7aR,E)-1-((S)-1-((R)-3-(difluoromethyl)pyrrolidin-1-yl)propan-2-yl)-7a-methyloctahydro-4H-inden-4-ylidene)ethylidene)cyclohexane-1,3-diol] |  | ≥ 20% | 0.38
 |  |  | 0.1 to 1 µM | C=C1/C(=C\C=C2/CCC[C@]3(C)[C@@H]([C@H](C)CN4CC[C@H](CCC(F)F)C4)CC[C@@H]23)C[C@@H](O)C[C@@H]1O [Compound B059, (1R,3S,Z)-5-(2-((1R,3aS,7aR,E)-1-((S)-1-((S)-3-(3,3-difluoropropyl)pyrrolidin-1-yl)propan-2-yl)-7a-methyloctahydro-4H-inden-4-ylidene)ethylidene)-4-methylenecyclohexane-1,3-diol] |  | ≥ 20% | 
 |  |  | 0.001 to 0.01 µM | C[C@@H]1CCN(C[C@@H](C)[C@H]2CC[C@H]3/C(=C/C=C4C[C@@H](O)C[C@H](O)C4)CCC[C@]23C)C1 [Compound B004, (1R,3R)-5-(2-((1R,3aS,7aR,E)-7a-methyl-1-((S)-1-((R)-3-methylpyrrolidin-1-yl)propan-2-yl)octahydro-4H-inden-4-ylidene)ethylidene)cyclohexane-1,3-diol] |  | ≥ 20% | 
0.431 ± 0.046 µM | 652 ± 85 pmol/g | 1.51 |  | C=C1/C(=C\C=C2/CCC[C@]3(C)[C@@H]([C@H](C)CN4CC[C@@H](C(F)F)C4)CC[C@@H]23)C[C@@H](O)C[C@@H]1O [Compound B024, (1R,3 S,Z)-5-(2-((1R,3aS,7aR,E)-1-((S)-1-((R)-3-(difluoromethyl)pyrrolidin-1-yl)propan-2-yl)-7a-methyloctahydro-4H-inden-4-ylidene)ethylidene)-4-methylenecyclohexane-1,3-diol] |  | ≥ 20% | 0.28
0.368 ± 0.026 µM | 726 ± 88 pmol/g | 1.97 |  | C=C1[C@H](O)CC(=C/C=C2\CCC[C@]3(C)[C@@H]([C@H](C)CCN4CCOCC4)CC[C@@H]23)C[C@H]1O [Compound D024, (1R,3R)-5-(2-((1R,3aS,7aR,E)-7a-methyl-1-((R)-4-morpholinobutan-2-yl)octahydro-4H-inden-4-ylidene)ethylidene)-2-methylenecyclohexane-1,3-diol] | 0.39 | ≥ 20% | 
 |  |  | 0.01 to 0.1 µM | C=C1/C(=C\C=C2/CCC[C@]3(C)[C@@H]([C@H](C)CN4CC[C@@H](OC(F)F)C4)CC[C@@H]23)C[C@@H](O)C[C@@H]1O [Compound B048, (1R,3S,Z)-5-(2-((1R,3aS,7aR,E)-1-((S)-1-((R)-3-(difluoromethoxy)pyrrolidin-1-yl)propan-2-yl)-7a-methyloctahydro-4H-inden-4-ylidene)ethylidene)-4-methylenecyclohexane-1,3-diol] |  | ≥ 20% | 
 |  |  | 0.01 to 0.1 µM | C=C1[C@H](O)CC(=C/C=C2\CCC[C@]3(C)[C@@H]([C@H](C)CN4CC(CC(F)F)C4)CC[C@@H]23)C[C@H]1O [Compound A019, (1R,3R)-5-(2-((1R,3aS,7aR,E)-1-((S)-1-(3-(2,2-difluoroethyl)azetidin-1-yl)propan-2-yl)-7a-methyloctahydro-4H-inden-4-ylidene)ethylidene)-2-methylenecyclohexane-1,3-diol] |  | ≥ 20% | 
 |  |  | < 0.001 µM | C[C@H](CN1CCCC(O)(C(F)F)C1)[C@H]1CC[C@H]2/C(=C/C=C3C[C@@H](O)C[C@H](O)C3)CCC[C@]12C (single isomer, unassigned) [Compound C035a] |  | ≥ 20% | 
